Experimental data from ChEMBL document CHEMBL1201862, “PubChem BioAssay data set” (2004).
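Five concentrations, 48 hours, 96-well plates. GI50 is the concentration that inhibits growth by half.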 Activity calls are given as the source filed them. No stated cut-off is given here; in the data, active = GI50 up to about 1.1 µM and inactive = higher.

Key:
Test in all cases: NCI tumour cell line growth inhibition, 48 h
EKVX = test system: EKVX
HCT-15 = test system: HCT-15
HOP-62 = test system: HOP-62
IGROV-1 = test system: IGROV-1
K562 = test system: K562
KM12 = test system: KM12
NCI-H226 = test system: NCI-H226
OVCAR-8 = test system: OVCAR-8
SF-268 = test system: SF-268
SK-MEL-2 = test system: SK-MEL-2
SK-OV-3 = test system: SK-OV-3
SN12C = test system: SN12C
SNB-19 = test system: SNB-19
U-251 = test system: U-251
UACC-257 = test system: UACC-257
UO-31 = test system: UO-31
ACHN = test system: ACHN
M14 = test system: M14
TK-10 = test system: TK-10

SMILES	GI50 (EKVX)	GI50 (HCT-15)	GI50 (HOP-62)	GI50 (IGROV-1)	GI50 (K562)	GI50 (KM12)	GI50 (NCI-H226)	GI50 (OVCAR-8)	GI50 (SF-268)	GI50 (SK-MEL-2)	GI50 (SK-OV-3)	GI50 (SN12C)	GI50 (SNB-19)	GI50 (U-251)	GI50 (UACC-257)	GI50 (UO-31)	GI50 (ACHN)	GI50 (M14)	GI50 (TK-10)
C=C1C(=O)OCC2C(C(=O)O)=CC3C(C)C(C)=CC123 (configuration not stated)	21.7 µM (inactive)	11 µM	12.2 µM (inactive)	11.9 µM (inactive)	10.2 µM (inactive)	9.93 µM (inactive)	19.1 µM (inactive)	9.59 µM (inactive)	9.46 µM (inactive)	7.21 µM (inactive)	16.4 µM (inactive)	8.73 µM (inactive)	11.8 µM (inactive)	11 µM (inactive)	16.7 µM (inactive)	14 µM (inactive)	–	–	–
CC(=O)c1ccc2c(c1)c1c(C)c3c[n+](C)ccc3c(C)c1n2C	33.3 µM (inactive)	17.6 µM	7.36 µM (inactive)	16.5 µM (inactive)	14.8 µM (inactive)	10.6 µM (inactive)	2.82 µM (inactive)	1.45 µM (inactive)	0.469 µM (active)	7.14 µM (inactive)	16.1 µM (inactive)	0.499 µM (active)	1.07 µM (active)	0.706 µM (active)	6.35 µM (inactive)	3.36 µM (inactive)	–	–	–
Cc1nc(N)nn1C1OCC(O)C(O)C1O (configuration not stated)	> 100 µM (inactive)	> 100 µM	> 100 µM (inactive)	> 100 µM (inactive)	> 100 µM (inactive)	> 100 µM (inactive)	–	> 100 µM (inactive)	> 100 µM (inactive)	> 100 µM (inactive)	> 100 µM (inactive)	> 100 µM (inactive)	> 100 µM (inactive)	> 100 µM (inactive)	> 100 µM (inactive)	> 100 µM (inactive)	> 100 µM (inactive)	> 100 µM (inactive)	> 100 µM (inactive)
COc1ccc(C2=CC3CCC2C3)cc1 (configuration not stated)	> 100 µM (inactive)	> 100 µM	> 100 µM (inactive)	> 100 µM (inactive)	> 100 µM (inactive)	> 100 µM (inactive)	–	> 100 µM (inactive)	> 100 µM (inactive)	> 100 µM (inactive)	12.2 µM (inactive)	> 100 µM (inactive)	> 100 µM (inactive)	> 100 µM (inactive)	> 100 µM (inactive)	> 100 µM (inactive)	> 100 µM (inactive)	> 100 µM (inactive)	> 100 µM (inactive)
O=C(c1ccccc1)c1c(CC(O)c2cccnc2)n(C(=O)c2ccccc2)c2ccccc12 (configuration not stated)	–	21.3 µM	16 µM (inactive)	19.1 µM (inactive)	21.6 µM (inactive)	18.9 µM (inactive)	11.7 µM (inactive)	25.3 µM (inactive)	20 µM (inactive)	20.3 µM (inactive)	–	–	18.9 µM (inactive)	17 µM (inactive)	22.4 µM (inactive)	14.1 µM (inactive)	22.9 µM (inactive)	19.1 µM (inactive)	26.9 µM (inactive)
CN(C)CC(CC1=C(CC(CN(C)C)N(C)C)CCC1)N(C)C (configuration not stated)	> 100 µM (inactive)	> 100 µM	> 100 µM (inactive)	> 100 µM (inactive)	> 100 µM (inactive)	> 100 µM (inactive)	> 100 µM (inactive)	> 100 µM (inactive)	> 100 µM (inactive)	> 100 µM (inactive)	> 100 µM (inactive)	> 100 µM (inactive)	> 100 µM (inactive)	> 100 µM (inactive)	> 100 µM (inactive)	> 100 µM (inactive)	–	–	–
O=C1c2ccccc2C(=O)N1CCn1nc(-c2ccccc2)cc(-c2ccccc2)c1=O	51.5 µM (inactive)	38.2 µM	> 100 µM (inactive)	74.8 µM (inactive)	18.2 µM (inactive)	> 100 µM (inactive)	50.1 µM (inactive)	33.3 µM (inactive)	> 100 µM (inactive)	82 µM (inactive)	> 100 µM (inactive)	44.6 µM (inactive)	> 100 µM (inactive)	71.1 µM (inactive)	> 100 µM (inactive)	18.9 µM (inactive)	34.7 µM (inactive)	> 100 µM (inactive)	–
COc1cc2ccc3c4c(OC)cc(OC)c(OC)c4c([O-])[n+](C)c3c2cc1OC	22.2 µM (inactive)	–	15.1 µM (inactive)	6.98 µM (inactive)	0.568 µM (active)	4.37 µM (inactive)	–	45.3 µM (inactive)	3.46 µM (inactive)	21.9 µM (inactive)	> 33 µM (inactive)	1.74 µM (inactive)	15.7 µM (inactive)	1.39 µM (inactive)	17.9 µM (inactive)	> 34 µM (inactive)	> 24.8 µM (inactive)	–	> 40.3 µM (inactive)
Cc1cc(O)c(C(C)C)cc1C(=S)Nc1ccc(Cl)cc1	12.7 µM (inactive)	10.7 µM	18.5 µM (inactive)	3.32 µM (inactive)	4.35 µM (inactive)	10.1 µM (inactive)	–	10.6 µM (inactive)	7 µM (inactive)	14.1 µM (inactive)	21.9 µM (inactive)	–	–	14.7 µM (inactive)	10.9 µM (inactive)	–	13 µM (inactive)	–	–
COCCOCCOCCOc1cccc2c1C(=O)c1cccc(OCCOCCOCCOC)c1C2=O	> 100 µM (inactive)	> 100 µM	> 100 µM (inactive)	> 100 µM (inactive)	37.8 µM (inactive)	–	–	> 100 µM (inactive)	–	–	> 100 µM (inactive)	> 100 µM (inactive)	> 100 µM (inactive)	> 100 µM (inactive)	> 100 µM (inactive)	–	> 100 µM (inactive)	> 100 µM (inactive)	> 100 µM (inactive)
CCCn1cc2c(SC)nc(SC)nc2n1	> 100 µM (inactive)	> 100 µM	–	> 100 µM (inactive)	> 100 µM (inactive)	> 100 µM (inactive)	32.2 µM (inactive)	> 100 µM (inactive)	> 100 µM (inactive)	> 100 µM (inactive)	–	> 100 µM (inactive)	> 100 µM (inactive)	> 100 µM (inactive)	> 100 µM (inactive)	> 100 µM (inactive)	> 100 µM (inactive)	> 100 µM (inactive)	> 100 µM (inactive)
O=C1C(=O)N(c2cc(Cl)ccc2Cl)C(=O)C(=O)C1c1nc2ccccc2o1	> 100 µM (inactive)	> 100 µM	> 100 µM (inactive)	> 100 µM (inactive)	61.1 µM (inactive)	> 31.6 µM (inactive)	–	> 100 µM (inactive)	> 100 µM (inactive)	> 100 µM (inactive)	> 100 µM (inactive)	> 100 µM (inactive)	> 100 µM (inactive)	> 100 µM (inactive)	> 100 µM (inactive)	> 70.8 µM (inactive)	> 100 µM (inactive)	> 91.8 µM (inactive)	> 100 µM (inactive)
C1=CC(=NN=P(c2ccccc2)(c2ccccc2)c2ccccc2)C=C1	> 100 µM (inactive)	> 100 µM	> 100 µM (inactive)	> 100 µM (inactive)	64 µM (inactive)	> 100 µM (inactive)	–	> 100 µM (inactive)	> 100 µM (inactive)	> 100 µM (inactive)	> 100 µM (inactive)	> 100 µM (inactive)	> 100 µM (inactive)	–	> 100 µM (inactive)	> 100 µM (inactive)	> 100 µM (inactive)	> 100 µM (inactive)	> 100 µM (inactive)
COc1cccc2c1C(=O)c1c(O)c3c(c(O)c1C2=O)CC(O)(C(C)=O)CC3O (configuration not stated)	4.9 µM (inactive)	9.23 µM	2.14 µM (inactive)	3.44 µM (inactive)	4.34 µM (inactive)	6.17 µM (inactive)	5.56 µM (inactive)	2.84 µM (inactive)	4.23 µM (inactive)	8.07 µM (inactive)	11.5 µM (inactive)	3.8 µM (inactive)	6.03 µM (inactive)	4.03 µM (inactive)	10.6 µM (inactive)	9.57 µM (inactive)	–	–	–
CN(C)C(=O)/C=C/c1c[nH]c(=O)[nH]c1=O	> 281 µM (inactive)	> 500 µM	> 500 µM (inactive)	> 500 µM (inactive)	> 500 µM (inactive)	> 500 µM (inactive)	> 500 µM (inactive)	> 500 µM (inactive)	> 500 µM (inactive)	> 500 µM (inactive)	> 254 µM (inactive)	> 500 µM (inactive)	> 500 µM (inactive)	> 500 µM (inactive)	> 500 µM (inactive)	> 500 µM (inactive)	–	–	–
Nc1ccc(/N=N/c2ccc(/C=C/c3ccc(/N=N/c4ccc(N)c5ccc(S(=O)(=O)O)cc45)cc3S(=O)(=O)O)c(S(=O)(=O)O)c2)c2cc(S(=O)(=O)O)ccc12	> 100 µM (inactive)	> 100 µM	> 100 µM (inactive)	> 100 µM (inactive)	> 100 µM (inactive)	> 100 µM (inactive)	> 71.1 µM (inactive)	> 100 µM (inactive)	> 100 µM (inactive)	> 100 µM (inactive)	> 100 µM (inactive)	> 100 µM (inactive)	> 100 µM (inactive)	> 100 µM (inactive)	> 100 µM (inactive)	> 100 µM (inactive)	–	–	–
CCCCCCCC/C=C\CCCCCCCC(=O)O [OLEIC ACID]	124 µM (inactive)	177 µM	> 500 µM (inactive)	178 µM (inactive)	104 µM (inactive)	240 µM (inactive)	9.48 µM (inactive)	99.1 µM (inactive)	101 µM (inactive)	206 µM (inactive)	> 500 µM (inactive)	51.6 µM (inactive)	143 µM (inactive)	149 µM (inactive)	105 µM (inactive)	158 µM (inactive)	–	–	–
